Source: patent publication US20250228239A1, “MOLECULES HAVING PESTICIDAL UTILITY, AND INTERMEDIATES, COMPOSITIONS, AND PROCESSES, RELATED THERETO” (priority 2024, published 2025)

Key:
[1] = tested on: Beet Armyworm (Spodoptera exigua, LAPHEG); assay: Bioassays on Beet Armyworm (BAW), 128-well diet tray assay; assay type: in vivo; settings: Spodoptera exigua; Beet Armyworm, Table ABC / ABC-DP rating; read-out: BAW rating
Procedure, shortened: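 Second-instar larvae, one to five per well, were placed on artificial diet surface-treated with 50 μg/cm^2 compound in 90:10 acetone-water, eight wells per treatment. Trays were held 5–7 days at 25 °C, 14:10 light-dark. Percent mortality per well was averaged over eight wells.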

[2] = tested on: Cabbage Looper (Trichoplusia ni, TRIPNI); assay: Bioassays on Cabbage Looper (CL), 128-well diet tray assay; assay type: in vivo; settings: Trichoplusia ni; Cabbage Looper, Table ABC / ABC-DP rating; read-out: CL rating
Procedure, shortened: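 Second-instar larvae (1–5 per well) placed on artificial diet surface-treated with 50 μg/cm^2 test molecule applied in 90:10 acetone-water and dried. Held at 25° C., 14:10 light-dark, for five to seven days. Percent mortality scored per well and averaged over eight wells.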

Row | Compound | pest or weed control at 50 µg/cm2 [1] [%] | pest or weed control at 50 µg/cm2 [2] [%]
1 | O=C(Nc1ccc(F)c(NC(=O)C2CCOC2C(F)(F)F)c1F)c1cc(NC(=O)[C@H]2[C@H](c3ccc(F)c(C(F)(F)F)c3)C2(Cl)Cl)ccc1Cl (stereo partly drawn) [F1837, N-(3-(2-Chloro-5-((1R,3R)-2,2-dichloro-3-(4-fluoro-3-(trifluoromethyl)phenyl)cyclopropane-1-carboxamido)benzamido)-2,6-difluorophenyl)-2-(trifluoromethyl)tetrahydrofuran-3-carboxamide] | 50 to 100 | 50 to 100
2 | CCCNc1c(F)ccc(NC(=O)c2cc(NC(=O)[C@H]3[C@H](c4ccc(F)c(C(F)(F)F)c4)C3(Cl)Cl)ccc2Cl)c1F [F1838, 2-Chloro-5-((1R,3R)-2,2-dichloro-3-(4-fluoro-3-(trifluoromethyl)phenyl)cyclopropane-1-carboxamido)-N-(2,4-difluoro-3-(propylamino)phenyl)benzamide] | 50 to 100 | 50 to 100
3 | O=C(Nc1ccc(F)c(NC(=O)C(F)(F)C(F)C(F)(F)F)c1F)c1cc(NC(=O)[C@H]2[C@H](c3ccc(F)c(C(F)(F)F)c3)C2(Cl)Cl)ccc1Cl (stereo partly drawn) [F1839, 2-Chloro-5-((1R,3R)-2,2-dichloro-3-(4-fluoro-3-(trifluoromethyl)phenyl)cyclopropane-1-carboxamido)-N-(2,4-difluoro-3-(2,2,3,4,4,4-hexafluorobutanamido)phenyl)benzamide] | 50 to 100 | 50 to 100
4 | O=C(CC(=O)C(F)(F)F)Nc1c(F)ccc(NC(=O)c2cc(NC(=O)[C@H]3[C@H](c4ccc(F)c(C(F)(F)F)c4)C3(Cl)Cl)ccc2Cl)c1F [F1840, 2-Chloro-5-((1R,3R)-2,2-dichloro-3-(4-fluoro-3-(trifluoromethyl)phenyl)cyclopropane-1-carboxamido)-N-(2,4-difluoro-3-(4,4,4-trifluoro-3-oxobutanamido)phenyl)benzamide] | 50 to 100 | 50 to 100
5 | CC(C)CC(=O)Nc1c(F)ccc(NC(=O)c2cc(NC(=O)[C@H]3[C@H](c4ccc(F)c(C(F)(F)F)c4)C3(Cl)Cl)ccc2Cl)c1F [F1845, 2-Chloro-5-((1R,3R)-2,2-dichloro-3-(4-fluoro-3-(trifluoromethyl)phenyl)cyclopropane-1-carboxamido)-N-(2,4-difluoro-3-(3-methylbutanamido)phenyl)benzamide] | 50 to 100 | 50 to 100
6 | O=C(COCC(F)(F)F)Nc1c(F)ccc(NC(=O)c2cc(NC(=O)[C@H]3[C@H](c4ccc(F)c(C(F)(F)F)c4)C3(Cl)Cl)ccc2Cl)c1F [F1846, 2-Chloro-5-((1R,3R)-2,2-dichloro-3-(4-fluoro-3-(trifluoromethyl)phenyl)cyclopropane-1-carboxamido)-N-(2,4-difluoro-3-(2-(2,2,2-trifluoroethoxy)acetamido)phenyl)benzamide] | 50 to 100 | 50 to 100
7 | O=C(Nc1ccc(F)c(NC(=O)C2(C(F)(F)F)CCC2)c1F)c1cc(NC(=O)[C@H]2[C@H](c3ccc(F)c(C(F)(F)F)c3)C2(Cl)Cl)ccc1Cl [F1849, 2-Chloro-5-((1R,3R)-2,2-dichloro-3-(4-fluoro-3-(trifluoromethyl)phenyl)cyclopropane-1-carboxamido)-N-(2,4-difluoro-3-(1-(trifluoromethyl)cyclobutane-1-carboxamido)phenyl)benzamide] | 50 to 100 | 50 to 100
8 | CC(=O)C1(C(=O)Nc2c(F)ccc(NC(=O)c3cc(NC(=O)[C@H]4[C@H](c5ccc(F)c(C(F)(F)F)c5)C4(Cl)Cl)ccc3Cl)c2F)CC1 [F1850, N-(3-(1-Acetylcyclopropane-1-carboxamido)-2,4-difluorophenyl)-2-chloro-5-((1R,3R)-2,2-dichloro-3-(4-fluoro-3-(trifluoromethyl)phenyl)cyclopropane-1-carboxamido)benzamide] | 50 to 100 | 50 to 100
9 | O=C(CCBr)Nc1c(F)ccc(NC(=O)c2cc(NC(=O)[C@H]3[C@H](c4ccc(F)c(C(F)(F)F)c4)C3(Cl)Cl)ccc2Cl)c1F [F1851, N-(3-(3-Bromopropanamido)-2,4-difluorophenyl)-2-chloro-5-((1R,3R)-2,2-dichloro-3-(4-fluoro-3-(trifluoromethyl)phenyl)cyclopropane-1-carboxamido)benzamide] | 50 to 100 | 50 to 100
10 | C#CCCC(=O)Nc1c(F)ccc(NC(=O)c2cc(NC(=O)[C@H]3[C@H](c4ccc(F)c(C(F)(F)F)c4)C3(Cl)Cl)ccc2Cl)c1F [F1855] | 50 to 100 | 50 to 100
11 | CC(F)(F)CCC(=O)Nc1c(F)ccc(NC(=O)c2cc(NC(=O)[C@H]3[C@H](c4ccc(Cl)c(Cl)c4)C3(Cl)Cl)ccc2Cl)c1F [F1860, 2-Chloro-5-((1R,3R)-2,2-dichloro-3-(3,4-dichlorophenyl)cyclopropane-1-carboxamido)-N-(3-(4,4-difluoropentanamido)-2,4-difluorophenyl)benzamide] | 50 to 100 | 50 to 100
12 | O=C(CCC(F)(F)C(F)(F)F)Nc1c(F)ccc(NC(=O)c2cc(NC(=O)[C@H]3[C@H](c4ccc(Cl)c(Cl)c4)C3(Cl)Cl)ccc2Cl)c1F [F1861, 2-Chloro-5-((1R,3R)-2,2-dichloro-3-(3,4-dichlorophenyl)cyclopropane-1-carboxamido)-N-(2,4-difluoro-3-(4,4,5,5,5-pentafluoropentanamido)phenyl) benzamide] | 50 to 100 | 50 to 100
13 | CC(CC(F)(F)F)C(=O)Nc1c(F)ccc(NC(=O)c2cc(NC(=O)[C@H]3[C@H](c4ccc(Cl)c(Cl)c4)C3(Cl)Cl)ccc2Cl)c1F (stereo partly drawn) [F1862, 2-Chloro-5-((1R,3R)-2,2-dichloro-3-(3,4-dichlorophenyl)cyclopropane-1-carboxamido)-N-(2,4-difluoro-3-(4,4,4-trifluoro-2-methylbutanamido)phenyl) benzamide] | 50 to 100 | 50 to 100
14 | O=C(COCC(F)(F)F)Nc1c(F)ccc(NC(=O)c2cc(NC(=O)[C@H]3[C@H](c4ccc(Cl)c(Cl)c4)C3(Cl)Cl)ccc2Cl)c1F [F1863, 2-Chloro-5-((1R,3R)-2,2-dichloro-3-(3,4-dichlorophenyl)cyclopropane-1-carboxamido)-N-(2,4-difluoro-3-(2-(2,2,2-trifluoroethoxy)acetamido)phenyl) benzamide] | 50 to 100 | 50 to 100
15 | CC(F)(F)CCC(=O)Nc1c(F)ccc(NC(=O)c2cc(NC(=O)[C@H]3[C@H](c4ccc(F)c(Cl)c4)C3(Cl)Cl)ccc2Cl)c1F [F1864, 2-Chloro-5-((1R,3R)-2,2-dichloro-3-(3-chloro-4-fluorophenyl)cyclopropane-1-carboxamido)-N-(3-(4,4-difluoropentanamido)-2,4-difluorophenyl)benzamide] | 50 to 100 | 50 to 100
16 | O=C(CCC(F)(F)C(F)(F)F)Nc1c(F)ccc(NC(=O)c2cc(NC(=O)[C@H]3[C@H](c4ccc(F)c(Cl)c4)C3(Cl)Cl)ccc2Cl)c1F [F1865, 2-Chloro-5-((1R,3R)-2,2-dichloro-3-(3-chloro-4-fluorophenyl)cyclopropane-1-carboxamido)-N-(2,4-difluoro-3-(4,4,5,5,5-pentafluoropentanamido)phenyl) benzamide] | 50 to 100 | 50 to 100
17 | O=C(COCC(F)(F)F)Nc1c(F)ccc(NC(=O)c2cc(NC(=O)[C@H]3[C@H](c4ccc(F)c(Cl)c4)C3(Cl)Cl)ccc2Cl)c1F [F1867, 2-Chloro-5-((1R,3R)-2,2-dichloro-3-(3-chloro-4-fluorophenyl)cyclopropane-1-carboxamido)-N-(2,4-difluoro-3-(2-(2,2,2-trifluoroethoxy)acetamido)phenyl) benzamide] | 50 to 100 | 50 to 100
18 | C=C(F)C(=O)Nc1c(F)ccc(NC(=O)c2cc(NC(=O)[C@H]3[C@H](c4ccc(Cl)c(Cl)c4)C3(Cl)Cl)ccc2Cl)c1F [F1871, 2-Chloro-5-((1R,3R)-2,2-dichloro-3-(3,4-dichlorophenyl)cyclopropane-1-carboxamido)-N-(2,4-difluoro-3-(2-fluoroacrylamido)phenyl)benzamide] | 50 to 100 | 50 to 100
19 | C=C(F)C(=O)Nc1c(F)ccc(NC(=O)c2cc(NC(=O)[C@H]3[C@H](c4cc(Cl)c(Cl)c(Cl)c4)C3(Cl)Cl)ccc2Cl)c1F [F1872, 2-Chloro-5-((1R,3R)-2,2-dichloro-3-(3,4,5-trichlorophenyl)cyclopropane-1-carboxamido)-N-(2,4-difluoro-3-(2-fluoroacrylamido)phenyl)benzamide] | 50 to 100 | 50 to 100
20 | C=CCC(=O)Nc1c(F)ccc(NC(=O)c2cc(NC(=O)[C@H]3[C@H](c4ccc(Cl)c(Cl)c4)C3(Cl)Cl)ccc2Cl)c1F [F1873, N-(3-(But-3-enamido)-2,4-difluorophenyl)-2-chloro-5-((1R,3R)-2,2-dichloro-3-(3,4-dichlorophenyl)cyclopropane-1-carboxamido)benzamide] | 50 to 100 | 50 to 100
21 | C=CCC(=O)Nc1ccc(F)c(NC(=O)c2cc(NC(=O)[C@H]3[C@H](c4cc(Cl)c(Cl)c(Cl)c4)C3(Cl)Cl)cc(F)c2F)c1F [F1875, N-(3-(But-3-enamido)-2,6-difluorophenyl)-5-((1R,3R)-2,2-dichloro-3-(3,4,5-trichlorophenyl)cyclopropane-1-carboxamido)-2,3-difluorobenzamide] | 50 to 100 | 50 to 100
